The values that follow come from patent US7270949B2, “Fluorescence based T-type channel assay” (Neuromed Pharmaceuticals Ltd., priority 2003, dated 2007).

In test [1] the test system is α1 subunit of T-type calcium channels. The test is described as follows: Fluorescence based assay for T-type modulators (FLUO-4, gramicidin/NMDG, KCl pulse). The class given is cell-based. As to conditions: transfected HEK 293 cells; various concentrations; FIG. 5; positive control. As to the method:
Mammalian cell lines stably expressing α1 subunit of T-type calcium channels were constructed by transfecting α1 calcium channel subunit DNA into HEK 293 cells and selecting for antibiotic resistance. Briefly, a full-length T-type calcium channel α1 subunit was subcloned into an expression vector with a selectable marker, pcDNA3 (InvitroGen, San Diego, Calif.). The vector was transfected into HEK 293 cells by lipofection and the cells incubated for 16-20 hours. The cells were fed nonselective medium and incubated for an additional 24 hours, then trypsinized and plated at low density in selective medium supplemented with Geneticin (G418) at a concentration of between 600 to 800 μg/ml. […] After growing up each isolated colony to confluency to establish cell lines, the expression of T-type calcium channels was determined by Northern and Southern blotting. […]
Each well was then treated with fluorescence dye solution containing a mixture of 50 μg FLUO-4 AM (Molecular Probes, F-14201); 45.5 μl DMSO; 45.5 μl 20% Pluronic F-127 (Molecular Probes, P-6867) and 4 ml MKH buffer. […]
To each well, EB buffer was added also containing DMSO at a concentration equal to that of the test compounds for negative controls, the known blocker penfluoridol at 2.5 μM for positive control, and test compounds (diluted in DMSO) for experimental wells. […] Background fluorescence was read in all wells. […]

The test system of test [2] is membrane potential of cells. The test is described as follows: Membrane potential of cells with gramicidin, NMDG substituted for external sodium (FIG. 3). The class given is cell-based. Conditions: 5 μg/ml gramicidin, absence of external sodium (NMDG). As to the method: As shown, when 5 μg/ml gramicidin is added in the absence of external sodium, the membrane potential decreases to about −70 mV.

With `OC1(c2ccc(Cl)c(C(F)(F)F)c2)CCN(CCCC(c2ccc(F)cc2)c2ccc(F)cc2)CC1` [penfluoridol], the “blocking calcium ion transport (fluorescence)” value in test [1] is “successful in blocking calcium ion transport”.

With gramicidin, in test [2], the membrane potential entry is on record as “about −70 mV”.
